Laboratory results reported in PubChem BioAssay AID1963830 (Molecular Pharmacology Branch, DTP, NCI, 2024).

System: 922993-354-T-J3-PDC complex spheroid viability
Test: Anticancer human tumor 922993-354-T-J3-PDC patient-derived endometrial carcinoma cell line growth inhibition [POLQ]
Details: for IC50: curve of first compound; for viability, T/C: stronger effect = lower value
Summary of the method: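 Growth inhibition in 3D: complex spheroids (tumor PDC, HUVEC, MSC) treated with POLQ inhibitor combinations; where Cmax unknown, highest tested concentration 10 microM, except SN-38 at 1 microM.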

[1] = second compound 0.0316 µM, first compound 0.0316 µM
[2] = second compound 0.0316 µM, first compound 0.1 µM
[3] = second compound 0.0316 µM, first compound 0.316 µM
[4] = second compound 0.0316 µM, first compound 1 µM
[5] = second compound 0.0316 µM, first compound 3.16 µM
[6] = second compound 0.0316 µM, first compound 10 µM
[7] = second compound 0.1 µM, first compound 0.0316 µM
[8] = second compound 0.1 µM, first compound 0.1 µM
[9] = second compound 0.1 µM, first compound 0.316 µM
[10] = second compound 0.1 µM, first compound 1 µM
[11] = second compound 0.1 µM, first compound 3.16 µM
[12] = second compound 0.1 µM, first compound 10 µM
[13] = second compound 0.316 µM, first compound 0.0316 µM
[14] = second compound 0.316 µM, first compound 0.1 µM
[15] = second compound 0.316 µM, first compound 0.316 µM
[16] = second compound 0.316 µM, first compound 1 µM
[17] = second compound 0.316 µM, first compound 3.16 µM
[18] = second compound 0.316 µM, first compound 10 µM
[19] = second compound 1 µM, first compound 0.0316 µM
[20] = second compound 1 µM, first compound 0.1 µM
[21] = second compound 1 µM, first compound 0.316 µM
[22] = second compound 1 µM, first compound 1 µM
[23] = second compound 1 µM, first compound 3.16 µM
[24] = second compound 1 µM, first compound 10 µM
[25] = second compound 3.16 µM, first compound 0.0316 µM
[26] = second compound 3.16 µM, first compound 0.1 µM
[27] = second compound 3.16 µM, first compound 0.316 µM
[28] = second compound 3.16 µM, first compound 1 µM
[29] = second compound 3.16 µM, first compound 3.16 µM
[30] = second compound 3.16 µM, first compound 10 µM
[31] = second compound 10 µM, first compound 0.0316 µM
[32] = second compound 10 µM, first compound 0.1 µM
[33] = second compound 10 µM, first compound 0.316 µM
[34] = second compound 10 µM, first compound 1 µM
[35] = second compound 10 µM, first compound 3.16 µM
[36] = second compound 10 µM, first compound 10 µM
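Also: spheroids exposed to the agents for one week.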
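For viability, T/C in this document: 100% = DMSO vehicle control wells.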

In the case of `CNCc1ccc(-c2[nH]c3cc(F)cc4c3c2CCNC4=O)cc1` + Nc1ccc(C#CCN(C(=O)Cc2ncc(C(F)(F)F)cc2C(F)(F)F)c2ccc(F)cc2)nn1, the IC50 (second compound 0.0316 µM) is reported as over 10 µM, the IC50 (second compound 0.1 µM) is reported as over 10 µM and the IC50 (second compound 0.316 µM) is reported as over 10 µM. The IC50 (second compound 1 µM) was over 10 µM, the IC50 (second compound 3.16 µM) was over 10 µM and the IC50 (second compound 10 µM) was over 10 µM. It also gave a viability, T/C [1] of 101%, a viability, T/C [2] of 98.2% and a viability, T/C [3] of 98.2%. For the same compound, the viability, T/C [4] was 97%, the viability, T/C [5] was 96.1% and the viability, T/C [6] was 90.5%. For the same compound, the viability, T/C [7] was 103%, the viability, T/C [8] was 99% and the viability, T/C [9] was 99.9%. It also gave a viability, T/C [10] of 101%, a viability, T/C [11] of 97.3% and a viability, T/C [12] of 92.5%. It also gave a viability, T/C [13] of 97.3%, a viability, T/C [14] of 99.2% and a viability, T/C [15] of 97%. It also gave a viability, T/C [16] of 96%, a viability, T/C [17] of 102% and a viability, T/C [18] of 91.8%. The viability, T/C [19] was 104%, the viability, T/C [20] was 96.4% and the viability, T/C [21] was 94.7%. It also gave a viability, T/C [22] of 102%, a viability, T/C [23] of 97.3% and a viability, T/C [24] of 94.9%. For the same compound, the viability, T/C [25] was 97.3%, the viability, T/C [26] was 100% and the viability, T/C [27] was 101%. It also gave a viability, T/C [28] of 93.9%, a viability, T/C [29] of 95.9% and a viability, T/C [30] of 89.6%. For the same compound, the viability, T/C [31] was 95.5%, the viability, T/C [32] was 96.9% and the viability, T/C [33] was 91.9%. The viability, T/C [34] was 93%, the viability, T/C [35] was 89.6% and the viability, T/C [36] was 69.9%.
For `COc1cc2cc(C(=O)CCC(=O)O)sc2cc1OC` + Cc1cccc(N(C)C(=O)C2C(O)CCN2c2nc(C)cc(C(F)(F)F)c2C#N)c1, the IC50 (second compound 0.0316 µM) was over 10 µM, the IC50 (second compound 0.1 µM) was over 10 µM and the IC50 (second compound 0.316 µM) was over 10 µM. The IC50 (second compound 1 µM) was over 10 µM, the IC50 (second compound 3.16 µM) was over 10 µM and the IC50 (second compound 10 µM) was over 10 µM. The viability, T/C [1] was 101%, the viability, T/C [2] was 103% and the viability, T/C [3] was 101%. It also gave a viability, T/C [4] of 103%, a viability, T/C [5] of 105% and a viability, T/C [6] of 83.8%. The viability, T/C [7] was 105%, the viability, T/C [8] was 105% and the viability, T/C [9] was 97%. It also gave a viability, T/C [10] of 102%, a viability, T/C [11] of 107% and a viability, T/C [12] of 90.6%. It also gave a viability, T/C [13] of 102%, a viability, T/C [14] of 105% and a viability, T/C [15] of 101%. For the same compound, the viability, T/C [16] was 104%, the viability, T/C [17] was 108% and the viability, T/C [18] was 91.3%. It also gave a viability, T/C [19] of 96.8%, a viability, T/C [20] of 106% and a viability, T/C [21] of 105%. For the same compound, the viability, T/C [22] was 104%, the viability, T/C [23] was 102% and the viability, T/C [24] was 92.3%. For the same compound, the viability, T/C [25] was 102%, the viability, T/C [26] was 101% and the viability, T/C [27] was 105%. The viability, T/C [28] was 103%, the viability, T/C [29] was 110% and the viability, T/C [30] was 90.3%. The viability, T/C [31] was 104%, the viability, T/C [32] was 98% and the viability, T/C [33] was 101%. For the same compound, the viability, T/C [34] was 99.6%, the viability, T/C [35] was 109% and the viability, T/C [36] was 93.7%.
`C=CC(=O)N1CCN(c2nc(=O)n(-c3c(C)ccnc3C(C)C)c3nc(-c4c(O)cccc4F)c(F)cc23)C(C)C1` (stereo not drawn) + Nc1ccc(C#CCN(C(=O)Cc2ncc(C(F)(F)F)cc2C(F)(F)F)c2ccc(F)cc2)nn1 was tested, and the IC50 (second compound 0.0316 µM) was over 10 µM, the IC50 (second compound 0.1 µM) was over 10 µM and the IC50 (second compound 0.316 µM) was over 10 µM. For the same compound, the IC50 (second compound 1 µM) was over 10 µM, the IC50 (second compound 3.16 µM) was over 10 µM and the IC50 (second compound 10 µM) was over 10 µM. The viability, T/C [1] was 105%, the viability, T/C [2] was 103% and the viability, T/C [3] was 96.5%. It also gave a viability, T/C [4] of 108%, a viability, T/C [5] of 105% and a viability, T/C [6] of 104%. It also gave a viability, T/C [7] of 110%, a viability, T/C [8] of 106% and a viability, T/C [9] of 104%. It also gave a viability, T/C [10] of 108%, a viability, T/C [11] of 107% and a viability, T/C [12] of 104%. It also gave a viability, T/C [13] of 107%, a viability, T/C [14] of 107% and a viability, T/C [15] of 103%. It also gave a viability, T/C [16] of 105%, a viability, T/C [17] of 104% and a viability, T/C [18] of 99.3%. For the same compound, the viability, T/C [19] was 107%, the viability, T/C [20] was 101% and the viability, T/C [21] was 99.6%. For the same compound, the viability, T/C [22] was 108%, the viability, T/C [23] was 101% and the viability, T/C [24] was 102%. For the same compound, the viability, T/C [25] was 101%, the viability, T/C [26] was 105% and the viability, T/C [27] was 104%. For the same compound, the viability, T/C [28] was 102%, the viability, T/C [29] was 103% and the viability, T/C [30] was 101%. It also gave a viability, T/C [31] of 97.3%, a viability, T/C [32] of 105% and a viability, T/C [33] of 105%. It also gave a viability, T/C [34] of 93.6%, a viability, T/C [35] of 101% and a viability, T/C [36] of 98.1%.
In the case of `COc1cccc(OCCCN)c1-c1cc(Nc2cnc(C#N)cn2)n[nH]1` + COC1C(OC(N)=O)C(O)C(Oc2ccc3c(O)c(NC(=O)c4ccc(O)c(CC=C(C)C)c4)c(=O)oc3c2C)OC1(C)C, the IC50 (second compound 0.0316 µM) is reported as 0.204 µM, the IC50 (second compound 0.1 µM) is reported as 0.187 µM and the IC50 (second compound 0.316 µM) is reported as 0.175 µM. The IC50 (second compound 1 µM) was 0.159 µM, the IC50 (second compound 3.16 µM) was 0.159 µM and the IC50 (second compound 10 µM) was 0.16 µM. The viability, T/C (second compound 0.0316 µM, first compound 0.00316 µM) was 92.4%, the viability, T/C (second compound 0.0316 µM, first compound 0.01 µM) was 94% and the viability, T/C [1] was 94.3%. It also gave a viability, T/C [2] of 91%, a viability, T/C [3] of 24.6% and a viability, T/C [4] of 9.14%. It also gave a viability, T/C (second compound 0.1 µM, first compound 0.00316 µM) of 99.6%, a viability, T/C (second compound 0.1 µM, first compound 0.01 µM) of 96.5% and a viability, T/C [7] of 102%. For the same compound, the viability, T/C [8] was 87.2%, the viability, T/C [9] was 18.6% and the viability, T/C [10] was 8.7%. The viability, T/C (second compound 0.316 µM, first compound 0.00316 µM) was 100%, the viability, T/C (second compound 0.316 µM, first compound 0.01 µM) was 92.2% and the viability, T/C [13] was 97.2%. For the same compound, the viability, T/C [14] was 84.6%, the viability, T/C [15] was 13.6% and the viability, T/C [16] was 9.43%. The viability, T/C (second compound 1 µM, first compound 0.00316 µM) was 108%, the viability, T/C (second compound 1 µM, first compound 0.01 µM) was 94% and the viability, T/C [19] was 78.9%. It also gave a viability, T/C [20] of 75.3%, a viability, T/C [21] of 12.9% and a viability, T/C [22] of 8.85%. The viability, T/C (second compound 3.16 µM, first compound 0.00316 µM) was 103%, the viability, T/C (second compound 3.16 µM, first compound 0.01 µM) was 110% and the viability, T/C [25] was 95.9%. For the same compound, the viability, T/C [26] was 70%, the viability, T/C [27] was 21.3% and the viability, T/C [28] was 9.8%. It also gave a viability, T/C (second compound 10 µM, first compound 0.00316 µM) of 90.1%, a viability, T/C (second compound 10 µM, first compound 0.01 µM) of 69.7% and a viability, T/C [31] of 80.1%. The viability, T/C [32] was 73.4%, the viability, T/C [33] was 16.1% and the viability, T/C [34] was 8.31%.
